# Values of other authors as cited in US7521430B2, “N-glucoside compounds having an inhibitory activity against sodium-dependent glucose transporter” (Mitsubishi Tanabe Pharma Corporation, priority 2003, dated 2009).
# Tested on: diabetic animal models
# Conditions: continuous subcutaneous administration
compound,measurement,value
O=C(CCc1ccc(O)cc1)c1c(O)cc(O)cc1O[C@@H]1O[C@H](CO)[C@@H](O)[C@H](O)[C@H]1O [phlorizin],hyperglycemia / blood glucose level,hyperglycemia is normalized
